Data from ChEMBL document CHEMBL1828496 (Eur J Med Chem, 2011).

Tests used:
[1] = Hydrolytic stability of the compound in acetonitrile after 1 to 24 hrs by NMR spectroscopic analysis; assay type: physicochemical
[2] = Hydrolytic stability of the compound in water after 1 to 24 hrs by NMR spectroscopic analysis; assay type: physicochemical
[3] = molecular target: T1, Amine oxidase [flavin-containing] A (Homo sapiens, UniProt P21397); experiment: Inhibition of human recombinant MAO-A expressed in baculovirus infected BTI-TN-5B1-4 cells assessed as production of hydrogen peroxide from p-tyramine at 100 uM after 15 mins by microplate fluorescence assay; settings: human, bti-tn-5b1-4, 0.25 h, 100 µM
T1 sequence (P21397 whole entry): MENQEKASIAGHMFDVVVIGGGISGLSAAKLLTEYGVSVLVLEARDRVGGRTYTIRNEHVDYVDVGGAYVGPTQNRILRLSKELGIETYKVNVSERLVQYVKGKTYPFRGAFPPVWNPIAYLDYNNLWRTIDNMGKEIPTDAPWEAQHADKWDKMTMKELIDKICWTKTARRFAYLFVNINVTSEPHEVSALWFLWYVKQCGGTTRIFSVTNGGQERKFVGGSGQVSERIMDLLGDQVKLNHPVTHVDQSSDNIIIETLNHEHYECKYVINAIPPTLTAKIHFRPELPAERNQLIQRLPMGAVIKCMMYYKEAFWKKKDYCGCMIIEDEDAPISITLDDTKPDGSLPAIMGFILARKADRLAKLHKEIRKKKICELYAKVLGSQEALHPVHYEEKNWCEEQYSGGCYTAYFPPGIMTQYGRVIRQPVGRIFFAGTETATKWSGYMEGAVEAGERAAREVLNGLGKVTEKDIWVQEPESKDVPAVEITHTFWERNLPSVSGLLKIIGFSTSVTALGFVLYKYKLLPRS

[4] = Hydrolytic stability of the compound in phosphate buffer at pH 7.4 after 1 to 24 hrs by NMR spectroscopic analysis; assay type: physicochemical
[5] = molecular target: T2, Amine oxidase [flavin-containing] B (Homo sapiens, UniProt P27338); experiment: Inhibition of human recombinant MAO-B expressed in baculovirus infected BTI-TN-5B1-4 cells assessed as production of hydrogen peroxide from p-tyramine at 100 uM after 15 mins by microplate fluorescence assay; settings: human, bti-tn-5b1-4, 0.25 h, 100 µM
T2 sequence (P27338 whole entry): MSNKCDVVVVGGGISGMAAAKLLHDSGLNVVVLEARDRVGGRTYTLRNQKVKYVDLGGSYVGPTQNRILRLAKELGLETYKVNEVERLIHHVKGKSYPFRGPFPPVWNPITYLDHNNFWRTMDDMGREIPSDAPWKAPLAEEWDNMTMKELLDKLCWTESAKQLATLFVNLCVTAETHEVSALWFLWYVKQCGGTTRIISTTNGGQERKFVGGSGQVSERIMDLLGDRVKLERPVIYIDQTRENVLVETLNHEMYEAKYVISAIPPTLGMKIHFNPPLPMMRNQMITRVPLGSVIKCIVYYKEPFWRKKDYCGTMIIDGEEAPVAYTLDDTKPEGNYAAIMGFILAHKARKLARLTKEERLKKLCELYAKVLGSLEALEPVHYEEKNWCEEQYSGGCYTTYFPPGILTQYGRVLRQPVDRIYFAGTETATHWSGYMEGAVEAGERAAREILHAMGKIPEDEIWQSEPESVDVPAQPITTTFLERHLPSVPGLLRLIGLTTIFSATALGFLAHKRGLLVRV

[6] = Hydrolytic stability of the compound in dimethyl sulfoxide after 1 to 24 hrs by NMR spectroscopic analysis; assay type: physicochemical
[7] = molecular target: T2, Amine oxidase [flavin-containing] B; experiment: biochemical; assay type: cell-based, BTI-TN-5B1-4
Description: Inhibition of human recombinant MAO-B expressed in baculovirus infected BTI-TN-5B1-4 cells assessed as production of hydrogen peroxide from p-tyramine after 15 mins by microplate fluorescence assay

[8] = molecular target: T1, Amine oxidase [flavin-containing] A; experiment: Inhibition of human recombinant MAO-A expressed in baculovirus infected BTI-TN-5B1-4 cells assessed as production of hydrogen peroxide from p-tyramine after 15 mins by microplate fluorescence assay
Homo sapiens = species: Homo sapiens; experiment: Selectivity ratio of IC50 for human recombinant MAO-A to IC50 for human recombinant MAO-B
[9] = molecular target: T2, Amine oxidase [flavin-containing] B; experiment: Inhibition of human recombinant MAO-B expressed in baculovirus infected BTI-TN-5B1-4 cells assessed as production of hydrogen peroxide from p-tyramine at 1 mM after 15 mins by microplate fluorescence assay; settings: bti-tn-5b1-4, 0.25 h, 1000 µM

Stability [1] | Stability [2] | inhibition (INH) [3] | Stability [4] | inhibition (INH) [5] | Stability [6] | IC50 [7] | IC50 [8] | Ratio IC50 (Homo sapiens) | inhibition (INH) [9] | SMILES
Stable | Stable | Not Active | Stable | Not Active | Stable |  |  |  |  | CCOC(=O)c1cc2cc(I)cc(I)c2oc1=O
Stable | Stable |  | Stable |  | Stable | 4.52 µM | 41.4 µM | 9.16 |  | O=C(NNc1ccccc1)c1cc2ccccc2oc1=O
 |  |  |  |  |  |  |  |  | Not Active | O=C(NCCN1CCOCC1)c1ccc(Cl)cc1 [MOCLOBEMIDE]
Stable | Stable |  | Stable |  | Stable | 0.0215 µM | 46.4 µM | 2160 |  | CCOC(=O)c1cc2ccc(OC3CCCCCC3)cc2oc1=O
